# Patent US20260345620A1, “IMPROVEMENTS IN OR RELATING TO COMPOSITIONS FOR TREATMENT OF LESIONS” (SYDERMA LTD, priority 2023, published 2026)
# What was measured:
# [1] = test system: actinic keratoses; experiment: Topical theobromine alone on actinic keratoses on nose of person (Example 10, comparative); format: in vivo, human
# Description: (§1) In another experiment a person with an area of actinic keratoses on their nose was treated with 0.5% theobromine solution once daily for 4 weeks. The theobromine solution was prepared in 25% ethanol and 50% glycerol, adjusted to pH 8 via 100 mM sodium hydrogen carbonate solution. Theobromine solution was stored at room temperature in the dark. In application, 50-100 μL (1-2 drops) of theobromine solution was applied first in a thin water-based layer over the whole treated area evenly.
# (§2) The patient reported no discomfort with treatment: pain and soreness were reported by the patient to be 0/10 in areas treated with theobromine treatment.
# [2] = test system: ATR; details: role: inhibitor; physiologically and clinically achievable conditions; cited from earlier work
# [3] = test system: PARP; details: role: inhibitor; physiologically and clinically achievable conditions; cited from earlier work
# [4] = test system: basal cell carcinoma; experiment: Topical theobromine alone on basal cell carcinoma in person (Example 7, comparative); format: in vivo, human; details: 0.5% theobromine solution once daily for 2 months
# Description: (§3) In another example a person with a clinical diagnosis of basal cell carcinoma was treated with 0.5% percent theobromine solution. In application, 50-100 μL (1-2 drops) of theobromine solution was applied in a thin water-based layer over the whole treated area evenly (up to 50 cm 2 area in total). Theobromine was applied once daily for 2 months. At the end of the treatment, they were examined by a dermatologist.
# [5] = cited from earlier work
# [6] = test system: actinic keratoses; experiment: Topical theobromine alone on actinic keratoses on scalp of person (Example 9, comparative); format: in vivo, human
# Description: as §1, with “scalp” for “nose”
# as §2
# [7] = test system: AK lesion; experiment: Split-scalp treatment of actinic keratoses with 5FU plus methylxanthine versus 5FU alone (Example 3); format: in vivo, human; details: for AK lesion clearance / efficacy versus 5FU alone control: 0.5% w/v methylxanthine in combination with Efudix 5% 5FU
# Description: P values below 0.05, denoting significance, are as marked.
# Results are shown per individual patient.
# All patients were treated solely on the scalp and were only treated on half of the scalp with the test compound and 5FU, while the other half was used as control, treated with 5FU alone. Separation between combination and 5FU only control was mostly done medially, with one patient having and anterior/posterior treatment setup. As in Example 2, the patients self-administered the test compound on the test region 10-20 minutes before applying the Efudix® cream containing 5% w/v 5FU. In application, 50-100 μL (1-2 drops) of the test compound solution was applied first in a thin water-based layer over the whole treated area evenly. 5-FU was applied 10-20 minutes later, via finger application, as per best practice and manufacturer's instructions. Patients applied the regimen at regular intervals, once daily. One fingertip unit (~0.5 g) was used for an equivalent of half the scalp area.
# [8] = test system: ATM; details: role: inhibitor; physiologically and clinically achievable conditions; cited from earlier work
# [9] = test system: basal cell carcinoma; experiment: Topical theobromine alone on basal cell carcinoma in person (Example 8, comparative); format: in vivo, human; details: 0.5% theobromine solution once daily for 1 month
# Description: as §3, with “for 1” for “for 2”, “months. The patient was” for “months. At the end of the treatment, they were”, “a dermatologist before the treatment and one week after completion of the treatment.” for “a dermatologist.”
# [10] = topical; percent of patients; cited from earlier work
# [11] = test system: basal cell carcinomas; details: topical; cited from earlier work
# [12] = test system: basal cell carcinomas; experiment: Topical treatment of basal cell carcinomas in person (Example 4); format: in vivo, human; details: one month after completing 1 month once daily treatment; 5% 5-FU with (2 lesions) or without (1 lesion) 0.5% theobromine
# Description: In another example, a person with multiple basal cell carcinomas was treated with: 5% 5-fluorouracil (5-FU) cream alone (1 lesion, back, clinical diagnosis) or a combination of 5-FU cream and theobromine solution (2 lesions-biopsy confirmed basal cell carcinoma, right leg and basal cell carcinoma, left forearm, clinical diagnosis). The treatment was continued once daily for 1 month and 0.5% percent theobromine solution. In application, 50-100 μL (1-2 drops) of theobromine solution was applied in a thin water-based layer over the whole treated area evenly (up to 50 cm2 area in total). 5-FU was applied via finger application, as per best practice and manufacturer's instructions. One finger tip unit (0.5 g) was used to cover 1 lesion. 5FU was applied 30 min after theobromine. One month after completing treatment the patient was examined by a dermatologist. The lesions treated with 5FU and theobromine resolved and the lesion treated with 5FU persisted.
# [13] = test system: actinic keratoses; details: topical; cited from earlier work
# [14] = test system: actinic keratoses; experiment: Split-area topical treatment of actinic keratoses on scalp of person (Example 1); format: in vivo, human
# Description: In one experiment a person with an actinic keratoses region on their scalp was treated with 5% 5-fluorouracil cream once daily for 30 days (as marked in FIG. 1, posterior region). Another area of actinic keratoses on their scalp (As marked on FIG. 1, anterior region) was treated with both 5% 5-fluorouracil cream once daily and 0.5% theobromine solution once daily for 30 days. The 5% 5-FU cream applied was a medically available cream from Mylan, commercially known as Efudix® cream. The theobromine solution was prepared in 25% ethanol and 50% glycerol, adjusted to pH 8 via 100 mM sodium hydrogen carbonate solution. Efudix® was stored as per manufacturer's instructions, at room temperature, and theobromine solution at room temperature in the dark. In application, 50-100 μL (1-2 drops) of theobromine solution was applied first in a thin water-based layer over the whole treated area evenly. 5-FU was applied 10-20 minutes later, via finger application, as per best practice and manufacturer's instructions. One fingertip unit (~0.5 g) was used for an equivalent of half the forehead area.
# (§4) Redness and inflammation were assessed by the responsible physician.
# [15] = test system: actinic keratoses; experiment: Split-scalp topical treatment of actinic keratoses in person (Example 2); format: in vivo, human
# Description: Quantification is as described for Patient #2 in Table 1;
# In another experiment a person with an actinic keratoses on their scalp was treated with 5% 5-fluorouracil cream 4× per week for 4 weeks (15 lesions, as marked in FIG. 2, left side of scalp). Another area of actinic keratoses on their scalp (16 lesions, as marked on FIG. 2, right side of scalp) was treated with both 5% 5-fluorouracil cream 4× per week and 0.5% theobromine solution 4× per week for 4 weeks. The 5% 5-FU cream applied was a medically available cream from Mylan, commercially known as Efudix® cream. The theobromine solution was prepared in 25% ethanol and 50% glycerol, adjusted to pH 8 via 100 mM sodium hydrogen carbonate solution. Efudix® was stored as per manufacturer's instructions, at room temperature, and theobromine solution at room temperature in the dark. In application, 50-100 μL (1-2 drops) of theobromine solution was applied first in a thin water-based layer over the whole treated area evenly. 5-FU was applied 10-20 minutes later, via finger application, as per best practice and manufacturer's instructions. One fingertip unit (~0.5 g) was used for an equivalent of half the forehead area.
# as §4
# [16] = test system: thymidylate synthase; details: role: inhibitor; cited from earlier work
# [17] = 0.5% theobromine solution once daily for 4 weeks
# [18] = four weeks after completion of treatment
structure (smiles),measurement,setting,value
Cn1cnc2c1c(=O)[nH]c(=O)n2C [theobromine],pain and soreness reported by the patient,[1]; [17],0 /10
same,reduction in number of actinic keratoses,[1]; 1 week after completion of 4 weeks treatment,No reduction in a number of actinic keratoses
same,discomfort reported by the patient,[1]; after 4 weeks of treatment,no discomfort
same,redness or inflammation,[1]; after 4 weeks of treatment,no redness or inflammation detected
same,inhibitory activity against ATR,[2],"triple inhibitory activity (against ATM, ATR and PARP)"
same,inhibitory activity against PARP,[3],"triple inhibitory activity (against ATM, ATR and PARP)"
same,basal cell carcinoma outcome,[4],basal cell carcinoma persisted
same,change in lesion appearance,[4],no change in the lesion appearance
same,inflammation or pain,[4],No evidence of inflammation or pain
same,solubility,[5],limited solubility
same,pain and soreness reported by the patient,[6]; [17],0 /10
same,reduction in number of actinic keratoses,[6]; [17],No reduction in a number of actinic keratoses
same,discomfort reported by the patient,[6]; after 4 weeks of treatment,no discomfort
same,redness or inflammation,[6]; after 4 weeks of treatment,no redness or inflammation detected
same,AK lesion clearance / efficacy versus 5FU alone control,[7],significantly improved AK lesion clearance
same,inhibitory activity against ATM,[8],"triple inhibitory activity (against ATM, ATR and PARP)"
same,change in lesion size or appearance,[9],no change in the lesion size or appearance
same,inflammation or pain,[9],No evidence of inflammation or pain
same,basal cell carcinoma outcome,[9]; one week after completion,basal cell carcinoma persisted
Cn1c(=O)c2c(ncn2C)n(C)c1=O [caffeine],AK lesion clearance / efficacy versus 5FU alone control,[7],decreased efficacy
same,trend in efficacy per patient,[7]; 0.5% w/v methylxanthine with 5FU versus 5FU alone baseline,neither caffeine not theophylline showed any positive trends
"O=c1[nH]cc(F)c(=O)[nH]1 [5-FU, 5-fluorouracil]","patients with painful, severe inflammatory reaction",[10],20-50%
same,efficacy for basal cell carcinomas,[11],60-70%
same,basal cell carcinoma lesion outcome,[12],persisted
same,efficacy for actinic keratoses,[13],50-60%
same,inflammation and scaliness of treated area,[14]; a week following cessation of treatment,significant inflammation and scaly appearance
same,pain and soreness reported by the patient,"[14]; after 30 days of once daily treatment, 5% 5-FU cream with or without 0.5% theobromine solution",9 /10
same,"redness, soreness and inflammation assessed by physician",[14]; after 30 days of treatment,became inflamed
same,discomfort reported by the patient,[14]; during 30 days of treatment,significant discomfort
same,clearance of the actinic keratosis lesion,[14]; [18],incomplete clearance
same,pain reported by the patient,[14]; [18],no pain reported by the patient
same,residual inflammatory reaction,[14]; [18],no visible residual inflammatory reaction
same,reduction in size of actinic keratosis lesion,"[14]; four weeks after completion of treatment, ImageJ image analysis",over 30%
same,"redness, soreness and inflammation assessed by physician",[15]; after 4 weeks of treatment,became inflamed
same,pain and soreness reported by the patient,"[15]; after 4 weeks, 4x per week, 5% 5-FU cream with or without 0.5% theobromine solution",2 /10
same,discomfort reported by the patient,[15]; during 4 weeks of treatment,mild discomfort
same,clearance of the actinic keratosis lesions,[15]; [18],incomplete clearance
same,pain reported by the patient,[15]; [18],no pain reported by the patient
same,residual inflammatory reaction,[15]; [18],no visible residual inflammatory reaction
same,actinic keratosis lesion count after treatment,"[15]; four weeks after completion, starting count 15 (5-FU alone), 16 (combination)",14 lesions
same,inhibition of thymidylate synthase,[16],inhibitor of thymidylate synthase
CC(C)Cn1cnc2c(N)nc3ccccc3c21 [imiquimod],"patients with painful, severe inflammatory reaction",[10],20-50%
same,efficacy for basal cell carcinomas,[11],70-80%
same,efficacy for actinic keratoses,[13],50-60%
